The target of data set [1] is T1, Tyrosine-protein kinase Mer (Homo sapiens) (UniProt Q12866).
T1 sequence (whole entry): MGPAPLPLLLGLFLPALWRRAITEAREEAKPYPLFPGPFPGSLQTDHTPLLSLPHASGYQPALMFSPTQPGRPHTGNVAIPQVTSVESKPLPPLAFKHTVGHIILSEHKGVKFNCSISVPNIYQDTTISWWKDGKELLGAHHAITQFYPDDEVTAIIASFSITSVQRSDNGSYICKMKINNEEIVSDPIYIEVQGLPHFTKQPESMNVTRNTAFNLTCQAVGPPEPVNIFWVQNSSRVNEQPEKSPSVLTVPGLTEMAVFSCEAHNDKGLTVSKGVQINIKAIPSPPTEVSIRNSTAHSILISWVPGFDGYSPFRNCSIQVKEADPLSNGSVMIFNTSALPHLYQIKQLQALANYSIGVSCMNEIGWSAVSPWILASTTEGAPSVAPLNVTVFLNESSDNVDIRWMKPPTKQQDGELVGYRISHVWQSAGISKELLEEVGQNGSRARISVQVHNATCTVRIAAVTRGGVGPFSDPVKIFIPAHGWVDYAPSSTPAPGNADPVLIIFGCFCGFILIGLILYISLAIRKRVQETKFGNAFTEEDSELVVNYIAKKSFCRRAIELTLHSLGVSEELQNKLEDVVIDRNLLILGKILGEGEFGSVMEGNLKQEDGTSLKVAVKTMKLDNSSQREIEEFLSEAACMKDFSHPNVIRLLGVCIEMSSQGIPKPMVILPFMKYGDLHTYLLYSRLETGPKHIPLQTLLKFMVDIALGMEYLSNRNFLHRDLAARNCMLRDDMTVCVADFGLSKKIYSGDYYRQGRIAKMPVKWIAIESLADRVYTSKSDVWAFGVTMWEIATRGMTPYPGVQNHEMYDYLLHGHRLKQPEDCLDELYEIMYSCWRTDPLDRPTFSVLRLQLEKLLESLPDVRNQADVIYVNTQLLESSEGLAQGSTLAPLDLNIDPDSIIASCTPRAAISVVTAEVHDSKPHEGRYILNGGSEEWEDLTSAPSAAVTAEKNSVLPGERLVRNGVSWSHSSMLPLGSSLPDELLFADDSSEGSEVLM
The data set is described as follows: Inhibition of human c-MER using poly[Glu:Tyr] (4:1) as substrate at 1 uM in presence of 32P-ATP by Hotspot assay relative to control; values are per cent of control.

Data set [2] deals with SVEC4-10. The data set is described as follows: Cytotoxicity against mouse SVEC4-10 cells assessed as induction of apoptosis at 3 to 10 uM incubated for 18 hrs by Cell Titer-Glo luminescent cell viability assay. In kind it is toxicity, cell-based. The conditions noted are these: svec4-10, 18 h, dose 3-10 µM. In general terms: Cellular ATP, detected with luciferase, serves as a proxy for viable cell number.

The target in data set [3] is T2, Serine/threonine-protein kinase D2 (Homo sapiens) (UniProt Q9BZL6).
T2 sequence (whole entry): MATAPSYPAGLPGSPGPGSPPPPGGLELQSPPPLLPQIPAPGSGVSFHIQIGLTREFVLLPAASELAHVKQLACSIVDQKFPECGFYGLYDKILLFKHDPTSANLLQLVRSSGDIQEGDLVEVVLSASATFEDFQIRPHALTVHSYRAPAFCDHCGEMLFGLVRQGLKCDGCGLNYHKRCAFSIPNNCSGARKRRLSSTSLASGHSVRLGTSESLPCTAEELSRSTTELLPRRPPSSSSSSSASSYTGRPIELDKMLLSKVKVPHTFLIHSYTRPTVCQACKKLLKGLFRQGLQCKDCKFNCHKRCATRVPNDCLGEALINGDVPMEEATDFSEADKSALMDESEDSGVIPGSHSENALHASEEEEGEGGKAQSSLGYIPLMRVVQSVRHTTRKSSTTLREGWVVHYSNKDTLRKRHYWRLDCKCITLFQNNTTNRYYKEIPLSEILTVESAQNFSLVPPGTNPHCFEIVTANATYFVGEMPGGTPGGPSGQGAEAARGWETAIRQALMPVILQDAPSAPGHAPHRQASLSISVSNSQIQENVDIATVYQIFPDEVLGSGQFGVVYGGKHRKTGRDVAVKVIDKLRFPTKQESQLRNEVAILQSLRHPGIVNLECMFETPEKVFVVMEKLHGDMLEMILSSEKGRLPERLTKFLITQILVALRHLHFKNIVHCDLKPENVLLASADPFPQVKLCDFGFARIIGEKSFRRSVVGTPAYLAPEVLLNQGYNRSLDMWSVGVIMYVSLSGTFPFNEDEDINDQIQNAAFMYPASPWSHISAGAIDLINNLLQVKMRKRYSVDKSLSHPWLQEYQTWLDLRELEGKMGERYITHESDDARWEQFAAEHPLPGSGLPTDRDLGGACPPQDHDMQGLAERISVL
The data set is described as follows: Residual activity of human PKD2/PRKD2 using KKLNRTLSVA as substrate at 1 uM in presence of 32P-ATP by Hotspot assay relative to control.

Data set [4] concerns MEF. Description: Cytotoxicity against MEF cells assessed as induction of apoptosis at 3 to 10 uM incubated for 18 hrs by Cell Titer-Glo luminescent cell viability assay. The format is toxicity, cell-based. The conditions noted are these: mouse, dose 3-10 µM.
The target in data set [5] is STE20-like serine/threonine-protein kinase (Homo sapiens) (UniProt Q9H2G2). The data set is described as follows: Residual activity of human SLK/STK2 using histone H3 as substrate at 1 uM in presence of 32P-ATP by Hotspot assay relative to control.
STE20-like serine/threonine-protein kinase (Homo sapiens), sequence (Q9H2G2 whole entry, looked up): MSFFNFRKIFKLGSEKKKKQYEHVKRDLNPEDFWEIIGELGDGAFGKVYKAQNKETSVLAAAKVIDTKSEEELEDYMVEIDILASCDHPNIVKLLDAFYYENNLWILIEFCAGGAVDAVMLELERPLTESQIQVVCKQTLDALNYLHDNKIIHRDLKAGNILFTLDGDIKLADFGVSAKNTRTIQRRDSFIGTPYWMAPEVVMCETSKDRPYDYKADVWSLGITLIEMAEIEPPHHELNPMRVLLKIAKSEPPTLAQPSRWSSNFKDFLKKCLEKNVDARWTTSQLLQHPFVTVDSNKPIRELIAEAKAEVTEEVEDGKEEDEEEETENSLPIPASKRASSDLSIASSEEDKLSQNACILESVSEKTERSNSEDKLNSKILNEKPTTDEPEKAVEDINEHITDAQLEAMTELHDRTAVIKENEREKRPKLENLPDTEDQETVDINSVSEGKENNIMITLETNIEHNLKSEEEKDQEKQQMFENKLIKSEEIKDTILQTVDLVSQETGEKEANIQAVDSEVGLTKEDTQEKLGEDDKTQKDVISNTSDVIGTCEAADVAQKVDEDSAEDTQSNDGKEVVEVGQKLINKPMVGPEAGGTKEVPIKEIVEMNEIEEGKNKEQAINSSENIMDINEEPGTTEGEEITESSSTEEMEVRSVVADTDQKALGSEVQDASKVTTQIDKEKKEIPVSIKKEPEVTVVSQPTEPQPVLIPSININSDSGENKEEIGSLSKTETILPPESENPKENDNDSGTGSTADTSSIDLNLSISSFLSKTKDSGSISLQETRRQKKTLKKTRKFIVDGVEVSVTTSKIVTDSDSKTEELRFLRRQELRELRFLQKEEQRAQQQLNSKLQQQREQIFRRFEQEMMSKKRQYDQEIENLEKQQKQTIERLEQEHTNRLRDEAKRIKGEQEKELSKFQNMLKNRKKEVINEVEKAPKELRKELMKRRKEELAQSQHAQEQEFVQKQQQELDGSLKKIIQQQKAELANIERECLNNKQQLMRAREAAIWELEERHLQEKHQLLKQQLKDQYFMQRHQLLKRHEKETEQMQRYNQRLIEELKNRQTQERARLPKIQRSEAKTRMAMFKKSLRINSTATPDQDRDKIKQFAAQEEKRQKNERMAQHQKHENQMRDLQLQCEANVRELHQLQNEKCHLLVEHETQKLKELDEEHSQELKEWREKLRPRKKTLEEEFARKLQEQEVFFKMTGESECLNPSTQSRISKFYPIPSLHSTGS
The subject of data set [6] is 3T3SA. The data set is described as follows: Cytotoxicity against mouse 3T3SA cells assessed as induction of apoptosis at 10 uM incubated for 18 hrs in presence of zVAD by Cell Titer-Glo luminescent cell viability assay. The format is toxicity, cell-based.
Data set [7] has as its system L929. Description: Cytotoxicity against mouse L929 cells assessed as induction of apoptosis at 3 to 10 uM incubated for 18 hrs by Cell Titer-Glo luminescent cell viability assay. The format is toxicity, cell-based. The settings on record: l929, 18 h, dose 3-10 µM.
Data set [8] has as its system 3T3SA. Description: Cytotoxicity against mouse 3T3SA cells assessed as induction of apoptosis at 3 to 10 uM incubated for 18 hrs by Cell Titer-Glo luminescent cell viability assay. The settings on record: dose 3-10 µM. The format is toxicity, cell-based.
Data set [9] relates to SVEC4-10. Description: Cytotoxicity against mouse SVEC4-10 cells assessed as induction of apoptosis at 10 uM incubated for 18 hrs in presence of zVAD by Cell Titer-Glo luminescent cell viability assay. In kind it is toxicity, cell-based. The conditions noted are these: svec4-10, 18 h.
Data set [10] has as its system L929. The data set is described as follows: Cytotoxicity against mouse L929 cells assessed as induction of apoptosis at 10 uM incubated for 18 hrs in presence of zVAD by Cell Titer-Glo luminescent cell viability assay. The conditions noted are these: l929, 18 h. The format is toxicity, cell-based.
Data set [11] relates to MEF. The data set is described as follows: Cytotoxicity against MEF cells assessed as induction of apoptosis at 10 uM incubated for 18 hrs in presence of zVAD by Cell Titer-Glo luminescent cell viability assay. The conditions noted are these: mouse. The format is toxicity, cell-based.
Data set [12] addresses T3, Receptor-interacting serine/threonine-protein kinase 3 (Homo sapiens, UniProt Q9Y572). The data set is described as follows: Inhibition of recombinant human RIP3 kinase domain (1 to 328 residues) expressed in baculovirus expression system by fluorescence polarization assay.
In data set [13] the target is T3, Receptor-interacting serine/threonine-protein kinase 3. The data set is described as follows: Inhibition of recombinant human RIP3 kinase activity by ADP-glo assay. (In general: In ADP-Glo the light output rises with the ADP produced.)

T3 sequence (Q9Y572 whole entry, the tested form may be a part): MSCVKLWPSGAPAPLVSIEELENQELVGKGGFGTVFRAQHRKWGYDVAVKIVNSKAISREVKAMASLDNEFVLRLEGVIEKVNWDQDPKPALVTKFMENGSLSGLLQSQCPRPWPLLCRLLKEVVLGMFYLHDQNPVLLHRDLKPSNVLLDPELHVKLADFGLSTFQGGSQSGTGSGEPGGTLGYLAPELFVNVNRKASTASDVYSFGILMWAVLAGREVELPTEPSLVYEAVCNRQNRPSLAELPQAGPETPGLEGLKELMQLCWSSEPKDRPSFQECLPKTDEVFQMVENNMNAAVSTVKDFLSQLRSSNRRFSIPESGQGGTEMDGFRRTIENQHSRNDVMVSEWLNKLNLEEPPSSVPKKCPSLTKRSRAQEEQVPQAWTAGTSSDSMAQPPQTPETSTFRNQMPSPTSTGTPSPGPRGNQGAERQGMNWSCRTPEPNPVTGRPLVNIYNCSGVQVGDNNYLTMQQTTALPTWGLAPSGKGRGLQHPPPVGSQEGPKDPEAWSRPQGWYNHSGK

For `CC(C)S(=O)(=O)c1ccc2nccc(Nc3ccc4scnc4c3)c2c1`, the residual activity in data set [1] stood at 93.8%; in [3], 101%; in data set [5], 87.8%. The Activity result in the data set with SVEC4-10 [2] was “Toxic”; in the data set on MEF [4] it was “Toxic”; in the data set with 3T3SA [6], “Non-Toxic”; with L929 [7], “Toxic”; in the data set on 3T3SA [8], “Toxic”; with SVEC4-10 [9], “Non-Toxic”. For the same compound, the Activity result with L929 [10] and with MEF [11] was “Non-Toxic” throughout.

For `CNC(=O)c1ccc2c(c1)ncn2-c1ccc(CC(=O)OC(C)(C)C)cc1`, the results for the residual activity in [1], in [3] and in [5] were 102%, 99% and 92.1%, respectively. The concentration for half-maximal inhibition (IC50) in data set [12] was determined as 0.9 nM; in data set [13] it was 0.3 nM.

As to `Cc1cc(-c2cnc(N)c3c(-c4ccc5scnc5c4)csc23)n(C)n1`, the residual activity in [1] was 89.1%; in [3], 39.4%; in data set [5], 94.6%. In addition, the Activity result in the data set on SVEC4-10 [2] is on record as “Toxic”; with MEF [4] it was “Toxic”; in the data set on 3T3SA [6] it was “Non-Toxic”; in the data set on L929 [7], “Toxic”; with 3T3SA [8], “Toxic”; in the data set with SVEC4-10 [9], “Non-Toxic”. Moreover, the Activity entry with L929 [10] and in the data set with MEF [11] was “Non-Toxic” throughout. Moreover, the values for the IC50 in data set [12] and in data set [13] were 8.6 nM and 6.5 nM, respectively.

Broadly, the residual activity is the signal under treatment as a percentage of the control signal. The IC50 is the concentration that gives 50% inhibition.

Source of the values: ChEMBL document CHEMBL5649166, “RIP3 induces apoptosis independent of pronecrotic kinase activity” (Mol Cell, 2014).
